Assay results reported in patent publication EP0429856A2, “Pharmaceutical preparation containing a metal salt of ibuprofen and process for making same” (Dolorgiet GmbH & Co. KG, priority 1989, dated 1991).

Experiment: Solubility of ibuprofen salts in saturated solutions at room temperature (HPLC, UV detection)
Source text: Zur Bestimmung der Löslichkeit der Ibuprofen-Salze werden bei Raumtemperatur gesättigte Lösungen hergestellt. Ein aliguoter Teil dieser Lösungen wird mit einem mit der Lösung mischbaren Lösungsmittel verdünnt und der Gehalt an Ibuprofen mittels HPLC über eine Reversed-Phase-Säule und UV-Detektion bestimmt.

[1] = 1,2-Propandiol/Glycerin/Wasser (2/4/3;v/v/v)
[2] = 1,2-Propandiol/Polyethylenglykol 400/Wasser (5/3/6;v/v/v)
[3] = Cabrylic/Capric Triglyceride (Miglyol 810)
[4] = Caprylic/Capric Triglyceride (Miglyol 812)
[5] = Ethanol/1,2-Propandiol/Wasser (1/4/4;v/v/v)
[6] = Polyoxyethylen-(7)-glycerin-kokosnußöfettsäure-ester
[7] = Polyoxyethylierte Olein-Glyceride (Labrafil M 1944 CS)

Row | Substance | Löslichkeit von Ibuprofen-Salzen bei Raumtemperatur (1,2-Propandiol) | Löslichkeit von Ibuprofen-Salzen bei Raumtemperatur [1] | Löslichkeit von Ibuprofen-Salzen bei Raumtemperatur [2] | Löslichkeit von Ibuprofen-Salzen bei Raumtemperatur [3] | Löslichkeit von Ibuprofen-Salzen bei Raumtemperatur [4] | Löslichkeit von Ibuprofen-Salzen bei Raumtemperatur (Ethanol) [mg Ibuprofen/ml] | Löslichkeit von Ibuprofen-Salzen bei Raumtemperatur [5] | Löslichkeit von Ibuprofen-Salzen bei Raumtemperatur (Glycerin) | Löslichkeit von Ibuprofen-Salzen bei Raumtemperatur (Glycerinmonoricinoleat) | Löslichkeit von Ibuprofen-Salzen bei Raumtemperatur (Isopropylmyristat) [mg Ibuprofen/ml] | Löslichkeit von Ibuprofen-Salzen bei Raumtemperatur (Paraffinum supl.) | Löslichkeit von Ibuprofen-Salzen bei Raumtemperatur (Polyethylenglykol 400) [mg Ibuprofen/ml] | Löslichkeit von Ibuprofen-Salzen bei Raumtemperatur [6] [mg Ibuprofen/ml] | Löslichkeit von Ibuprofen-Salzen bei Raumtemperatur [7] [mg Ibuprofen/ml] | Löslichkeit von Ibuprofen-Salzen bei Raumtemperatur (Wasser)
1 | Aluminiumdiibuprofen (1 : 2) [Ibuprofen-Al (2 : 1)] | 0,8 mg Ibuprofen/ml | < 0,1 mg Ibuprofen/ml | < 0,1 mg Ibuprofen/ml | 0,5 mg Ibuprofen/ml | 0,3 mg Ibuprofen/ml | 2 | < 0,1 mg Ibuprofen/ml | < 0,1 mg Ibuprofen/ml | 4,5 mg Ibuprofen/ml | 1 | < 0,1 mg Ibuprofen/ml | 2 | 6 | 4 | < 0,1 mg Ibuprofen/ml
2 | Ibuprofen-Magnesiumsalz [Ibuprofen-Mg] | 160 mg Ibuprofen/ml | 250 mg Ibuprofen/ml | 125 mg Ibuprofen/ml | 35 mg Ibuprofen/ml | 17 mg Ibuprofen/ml | 500 | 330 mg Ibuprofen/ml | 8 mg Ibuprofen/ml | 450 mg Ibuprofen/ml | 260 | 0,4 mg Ibuprofen/ml | 40 | 480 | 380 | 7 mg Ibuprofen/ml
